Source: ChEMBL document CHEMBL5724914, “Linking interpersonal differences in gut microbiota composition and drug biotransformation activity” (2024)

Columns and labels:
[1] = (§1) The drug is tested on Z-030 corresponding to mouse gut metagenome with ENA study accession number: PRJEB37062 and ENA sample accession number: ERS12561829 for biotransformation under anaerobic condition. The drug concentrations were measured over 9 timepoints collected between 0 and 24 hours of incubation by liquid-chromatography-coupled mass spectrometry (LC–MS); conditions: 2 µM
[2] = as §1, with “Z-027” for “Z-030”, “to” for “to mouse gut”, “ERS12561826” for “ERS12561829”; conditions: 2 µM
[3] = as §1, with “Z-017” for “Z-030”, “ERS12561816” for “ERS12561829”; conditions: 2 µM
[4] = as §1, with “Z-012” for “Z-030”, “to” for “to mouse gut”, “ERS12561812” for “ERS12561829”; conditions: 2 µM
[5] = as §1, with “Z-010” for “Z-030”, “to” for “to mouse gut”, “ERS12561810” for “ERS12561829”; conditions: 2 µM
[6] = as §1, with “Z-008” for “Z-030”, “to” for “to mouse gut”, “ERS12561808” for “ERS12561829”; conditions: 2 µM
[7] = as §1, with “Z-007” for “Z-030”, “rat” for “mouse”, “ERS12561807” for “ERS12561829”; conditions: 2 µM
[8] = as §1, with “Z-005” for “Z-030”, “to” for “to mouse gut”, “ERS12561805” for “ERS12561829”; conditions: 2 µM
[9] = as §1, with “WLS-350” for “Z-030”, “human” for “mouse”, “ERS12561789” for “ERS12561829”; conditions: 2 µM
[10] = as §1, with “WLS-077” for “Z-030”, “human” for “mouse”, “ERS12561750” for “ERS12561829”; conditions: 2 µM
[11] = as §1, with “WLS-073” for “Z-030”, “human” for “mouse”, “ERS12561749” for “ERS12561829”; conditions: 2 µM
[12] = as §1, with “WLS-052” for “Z-030”, “human” for “mouse”, “ERS12561747” for “ERS12561829”; conditions: 2 µM
[13] = as §1, with “WLS-038” for “Z-030”, “human” for “mouse”, “ERS12561745” for “ERS12561829”; conditions: 2 µM
[14] = human gut metagenome, 24 h, 2 µM
[15] = human gut metagenome, 24 h, 2 µM; remark: listed apart in the source
[16] = human gut metagenome, 24 h, 2 µM; remark: listed apart in the source
[17] = human gut metagenome, 24 h, 2 µM; remark: listed apart in the source
[18] = human gut metagenome, 24 h, 2 µM; remark: listed apart in the source
[19] = human gut metagenome, 24 h, 2 µM; remark: listed apart in the source
[20] = human gut metagenome, 24 h, 2 µM; remark: listed apart in the source
Note: call rule not given here.

Cc1ccc(-c2nc3ccc(C)cn3c2CC(=O)N(C)C)cc1 [ZOLPIDEM]
Bacterial Biotransformation [1]: Compound NOT metabolized | Bacterial Biotransformation [2]: Compound NOT metabolized | Bacterial Biotransformation [3]: Compound NOT metabolized | Bacterial Biotransformation [4]: Compound NOT metabolized | Bacterial Biotransformation [5]: Compound metabolized | Bacterial Biotransformation [6]: Compound NOT metabolized | Bacterial Biotransformation [7]: Compound NOT metabolized | Bacterial Biotransformation [8]: Compound NOT metabolized | Bacterial Biotransformation [9]: Compound NOT metabolized | Bacterial Biotransformation [10]: Compound NOT metabolized | Bacterial Biotransformation [11]: Compound NOT metabolized | Bacterial Biotransformation [12]: Compound NOT metabolized | Bacterial Biotransformation [13]: Compound NOT metabolized | Bacterial Biotransformation [14]: Compound metabolized | Bacterial Biotransformation [15]: Compound NOT metabolized | Bacterial Biotransformation [16]: Compound metabolized | Bacterial Biotransformation [17]: Compound metabolized | Bacterial Biotransformation [18]: Compound metabolized | Bacterial Biotransformation [19]: Compound metabolized | Bacterial Biotransformation [20]: Compound NOT metabolized
